# Like-named read-outs stand apart in the source and are kept apart here.
# Legend:
# Human Liver-Chip = assay: Effect of Bosentan on albumin secretion, Human Liver-Chip; type: cell-based; conditions: in vivo relevant doses
# Source text: (§1) Readouts include but are not limited to: albumin secretion, Effect of Bosentan on Albumin Secretion; Inhibition of BSEP Transporter; Bile acid accumulation Cholyl-lysyl-fluorescein (CLF); BSEP substrate etc.
# Dog Liver-Chip = assay: Effect of Bosentan on albumin secretion, Dog Liver-Chip; type: cell-based; conditions: in vivo relevant doses
# Source text: as §1
# [1] = test system: Kidney Proximal Tubule-Chip; assay: Assessment of tattoo pigment toxicity on the Kidney Proximal Tubule-Chip; type: cell-based, human
# Description: Channel: Renal Proximal Tubule Epithelial Cells
# Bottom Channel: Renal Microvascular Endothelial Cells
# Morphology: BF Imaging From Effluent: LDH, ROS
# Terminal Endpoints From Lysates: Caspase, ALP
# ECM-coating. Sulfo-sanpah (Covachem, #13414), ER1 (0.5 mg/ml) in ER2 50 mM HEPES buffer; Collagen IV (BD Corning, 50 μg/mL in Dulbecco's phosphate-buffered saline (DPBS); and Matrigel (BD Corning, reduced growth factor, 100 ug/ml DPBS). Cells. Top channel. Human Proximal Tubular Epithelial Cells (Lonza, RPTEC #CC-2553); and Bottom channel. Primary Human Glomerular microvascular Endothelial cells (Cell Systems. ACBRI 128), expand to P7 (e.g. passage 7). Media. Renal Epithelial Growth Medium (REGM™ Lonza, CC-3190) for Proximal tubule cells or REGM2 (from PromoCell, Cat #C-26130); and Kidney endothelial cell medium (Cell Systems, 4ZO-500). Chip. High shear chip; under flow shear; and Tall channel closed top-chip. Experimental reagents. Collagen IV coated 6 well plate; and Corning BioCoat Collagen IV multiwall plates, Corning #354428.
# One brief exemplary timeline is described as: Day −2: Chip coating; Day −1: Seeding endothelial cells; Day 0: Seeding proximal tubule epithelial cells; Day 0-7: Maintain chips; Day 7: Start Experiment (Study), e.g. 72 hours; and Day 10: End 72 hour Experiment (Study). Exemplary readouts include but are not limited to: Phase contrast microscopic images; immunofluorescent images; barrier function (in particular for kidney-chips, etc.); and Troponin I release (in particular for heart-chips, i.e. cardiac-chips).
# Outflow from chips, (e.g. S1—closed top chip; and high shear (HS) chip) was collected for certain readouts. For reference, kidney endothelial media contains 5% FBS while the kidney epithelial media contains 0.5% FBS.
# [2] = test system: Static Skin models (Hybrid Transwells); assay: Phototoxicity and photosensitization to Red122: cytokines release; type: cell-based, human; conditions: tattooed with 35% w/v; for inflammatory and sensitization cytokines (IL-1Beta and IL-18) following UVA exposure: UVA on D11 ALI (D7 post-tattoo)
# Static Skin models = type: cell-based, human
# Source text: Red tattoo pigments known to cause some level of toxicity following sun exposure.
# D12 ALI (D8 post-tattoo) N=4 per condition. Hybrid Transwells.
# Red tattoo pigments known to cause some level of toxicity following sun exposure. […] D12 ALI (D8 post-tattoo) N=4 per condition. Hybrid Transwells.
# Safety Assessment of Red122 Pigment—Phototoxicity Assay (Viability) Red tattoo pigments known to cause some level of toxicity following sun exposure. […] Chlorpromazine (CPZ), known to be induce phototoxicity and photosensitization, was used as a positive control.
# Barrier Function: Permeability of Cascade Blue (3000 MW); Quantification of skin permeability to Cascade Blue by topical deposition of 50 μl of 10 μM Cascade Blue, followed by 1 hour static incubation. Bottom channel medium collected and Papp determined by quantification of Cascade Blue present in the sampled medium using a plate-reader. […] Permeability of Testosterone and Caffeine; Requires mass spectrometer for detection. These values can be correlated to in vivo skin. Topical Compound Test for Toxicity, Corrosivity, Irritancy, Phototoxicity viability assays performed are MTT or Presto Blue. Corrosivity: a material is considered corrosive if cell viability is <50% after 3 min exposure or <15% after 60 min exposure. […]
# Static Skin-Chip Model = assay: Toxicity of pigments tattooed on Static Skin-Chip Model, metabolic activity (Presto Blue); type: cell-based, human
# Source text: Tattooed on D4 at ALI, N=4 per condition Hybrid Transwells.
# Metabolic Activity (Presto Blue) of Blue15 Pigment. Tattooed on D4 at ALI. N=4 per condition Hybrid Transwells.
# Thus, readouts include assessing recovery after damage. Readouts include but are not limited to Invitrogen PrestoBlue™.
# [3] = test system: Skin-Chip (microfluidic OT-chip); conditions: human
# Source text: Readouts include but are not limited to Invitrogen PrestoBlue™. Invitrogen PrestoBlue™ Cell Viability Reagent, e.g. Fisher Scientific, Catalog number: A1326, is an exemplary metabolic Assay Reagent. When added to cells, the PrestoBlue® reagent is modified by the reducing environment of a viable cell and turns red in color, becoming highly fluorescent. This color change can be detected using fluorescence or absorbance measurements.
# [4] = test system: epidermal cells in a Skin-Chip (microfluidic OT-chip)
# Source text: In some embodiments, a live-dead staining is used for determining cell viability.
# Liver-Chip = assay: Assessment of tattoo pigment toxicity on the Liver-Chip; conditions: 5 microM
# Description: Injury to liver function is indicated by […] in albumin Secretion. […] Other functional changes or mechanistic routes may be detectable through additional assays
# Pigment with a low concentration of 0.03% of pigment diluent is flowed through the chip (same concentrations both top and bottom channels simultaneously). […] In future applications, we also plan to explore potential toxicity of pigment diluent formulations (without pigments).
# Both top and bottom channels were treated
# Embodiments of Liver-Chips include: Co-culture (Hepatocytes+LSECs); Tri-culture (Hepatocytes+LSECs+Kupffer cells); Quad-culture (Hepatocytes+LSECs+Kupffer cells+Stellate cells); Human Liver-Chip; Rat Liver-Chip; Dog Liver-Chip; etc.
# EpiDerm200 from MatTek [5] = conditions: cited from earlier work
# Static Skin model = type: cell-based, human
# Description: Tissue robustness evaluated by determining the ET50 value following topical exposure to 1% TritonX-100.
# (§2) In one embodiment, tissue robustness was evelauated determining the ET50 value following topical exposure to a test irritant, 1% TritonX-100. Irritation potential is calculated in terms of the “ET50” value: the time taken, in minutes, for a test compound to reduce the viability of the skin model to 50% compared with negative controls. […] Thus, at least one commercially obtained and tested skin equivalent model became permeable faster than one embodiment of a static skin model described herein.
# (§3) Immunostaining (IF):Biomarkers characteristic of the stratified epidermal layers should include: • Basement membrane markers: collagen IV, Laminin 5 • Stratum basal: Keratin 14 • Stratum spinosum: Keratin 10 • Stratum granulosum: Filaggrin • Stratum corneum: Involucrin, Loricrin Quality control of tissue reproducibility from sample to sample and lot to lot can also be established by comparison of ET50 values to a baseline value. Example provided from MatTek for their baseline ET50 value on EpiDerm200—average 6.82 h. Exposure to 1.0% Triton X-100 topically over 12 h.
# EpiDerm200 from MatTek [6] = assay: ET50 following topical exposure to Triton X-100, EpiDerm200 from MatTek; type: cell-based; conditions: skin equivalent model on the market
# Description: as §2, §3
# [7] = test system: Static Skin model (Hybrid Transwells); assay: Skin irritation: release of associated cytokines after topical Triton X-100, Hybrid Transwells; type: cell-based, human; conditions: topical exposure
# Description: D11 ALI. N=3 per condition Hybrid Transwells.
# Method 1: ET50 values determined by MTT or Presto Blue assay will define the class of irritancy based on in vivo classification (see table below). Topical exposures will include 3 exposure times of 2 h, 5 h and 18 h to 100 ul or 100 mg of a test material. Positive control include 5% SDS and 1% Triton X-100. Method 2: a material is considered an irritant is viability is <50% after 1 h topical exposure to 30 ul or 25 mg/of test material (OECD TG 439) Method 3: a material is considered an irritant if there is an increase in the following cytokines compared to control by ELISA is indicative of skin irritant—IL-1alpha, IL-8, prostaglandin PGE2. MatTek Irritancy protocol
# [8] = test system: proximal tubular epithelium; assay: Gentamicin-induced toxicity on Renal-Kidney Proximal Tubule-Chip; type: cell-based, human; conditions: 10 mM for 48 hours
# Description: Gentamicin treatment is used for inducing damage as a positive control compared to controls without Gentamicin.
# Readouts include but are not limited to: Gentamicin-induced toxicity after exposure to 10 mM of gentamicin for 48 hours.
compound,measurement,setting,value
COc1ccccc1Oc1c(NS(=O)(=O)c2ccc(C(C)(C)C)cc2)nc(-c2ncccn2)nc1OCCO [Bosentan],"albumin secretion, dose response",Human Liver-Chip,dose response effects
same,"albumin secretion, dose response",Dog Liver-Chip,dose response effects
Cc1ccc2[nH]c3cc4c(=O)c5cc(C)ccc5[nH]c4cc3c(=O)c2c1 [Red122],caspase activity,[1]; between the different doses,No significant differences were noted in caspase activity
same,kidney toxicity via LDH release,[1]; between the different doses,No significant changes in LDH
same,ROS activity,[1]; between the different groups,No significant differences were observed in the ROS activity
same,ALP activity (kidney function),[1]; different doses,No significant differences were observed in the ALP activity
same,inflammatory and sensitization cytokines (IL-1Beta and IL-18) following UVA exposure,[2],both cytotoxicity and sensitization following UVA exposure
same,inflammatory and sensitization cytokines (IL-1Beta and IL-18) following UVA exposure,[2]; listed as Red,increase in both cytokines
same,effect as a skin sensitizer (cytokine release),[2]; no UVA,no effect as a skin sensitizer
same,secretion of inflammatory cytokine,[2]; no UVA,increased secretion of inflammatory cytokine
same,viability from healthy after UVA (phototoxicity),Static Skin models,85%
same,"viability (metabolic activity, Presto Blue)","Static Skin-Chip Model; 24 h post-tattoo, tattooed on D4 at ALI, Hybrid Transwells",decrease in viability with increasing Red122 concentration
same,skin recovery (viability),Static Skin-Chip Model; over 8 days post-tattoo,Skin recovery observed
O=C(O)CO [glycolic acid],metabolic activity (PrestoBlue) as percentage of untreated control,[3],statistically significant reduction in activity compared to the activity of citric acid (0.6M) and lactic acid
CC(O)C(=O)O (centres unmarked) [lactic acid],"cell death by DRAQ7 staining, dead cells/mm^2",[4],statistically significant death of skin cells
CN[C@@H]1C[C@H]2O[C@@](C)([C@@H]1OC)n1c3ccccc3c3c4c(c5c6ccccc6n2c5c31)C(=O)NC4 [staurosporine],"ATP synthesis, effluent from the bottom channels",Liver-Chip,loss of ATP synthesis
same,"albumin secreted over time, effluent from the top channel",Liver-Chip,loss of secreted albumin
same,hepatocyte cell morphology,Liver-Chip; after 4 days of treatment,hepatocyte damage
Triton X-100,"baseline ET50 value, average","EpiDerm200 from MatTek [5]; EpiDerm200, 1.0% Triton X-100 topically, provided from MatTek",6.82 h
same,EPI-200 Triton ET-50,EpiDerm200 from MatTek [5]; Year 1995,6.65 h
same,EPI-200 Triton ET-50,EpiDerm200 from MatTek [5]; Year 1996,6.74 h
same,EPI-200 Triton ET-50,EpiDerm200 from MatTek [5]; Year 1997,6.78 h
same,EPI-200 Triton ET-50,EpiDerm200 from MatTek [5]; Year 1998,7.24 h
same,EPI-200 Triton ET-50,EpiDerm200 from MatTek [5]; Year 1999,6.75 h
same,EPI-200 Triton ET-50,EpiDerm200 from MatTek [5]; Year 2000 (through September 2000),6.76 h
same,ET50,Static Skin model,11 h
same,ET50,EpiDerm200 from MatTek [6],7 h
same,expression of inflammatory cytokine IL-1B,[7],increase in expression
same,IL-18 (expressed following skin sensitization),[7]; D11 ALI,no significant increase
same,expression of inflammatory cytokine IL-1alpha,[7]; D11 ALI,increase in expression
gentamicin,LDH in medium effluent,[8],significant increase
same,NAG in medium effluent,[8],significant increase
same,ROS in medium effluent,[8],significant increase
same,active caspase-3 in cells lysates,[8],increase
same,microscopic analysis of the proximal tubular epithelium,[8],structural damage
